Data on eleven molecules can be found in patent publication US9394284B2, “Compounds act at multiple prostaglandin receptors giving a general anti-inflammatory response” (Allergan, Inc., priority 2010, dated 2016).

What all share (format): cell-based
Assay [1] deals with T1, human prostanoid FP receptor (Homo sapiens, UniProt P43088).
T1 construct: expressed in transfected cells
The assay is described as follows: FLIPR Ca2+ signaling antagonist assay, FP receptor stable cell line. Particulars: HEK-293 EBNA stable cell line; standard agonist 17-phenyl-PGF2α; NA = inactive (no antagonism or Kb 10,000 nM); PAg, Ag not defined. Summed up: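 Peak Fluo-4 fluorescence (ex 470–495, em 515–575 nm) was read for 3.5 min on FLIPR after agonist injection and expressed relative to 10^−6 M standard agonist. Cells were HEK-293 EBNA transfectants. Test compound was added 4.5 min beforehand at 0.1–30 μM, or 0.067–1 μM for TP.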

Assay [2] concerns the target T2, human prostanoid EP3 receptor (Homo sapiens, UniProt P43115).
T2 construct: expressed in transfected cells
T2 sequence (P43115 1-390): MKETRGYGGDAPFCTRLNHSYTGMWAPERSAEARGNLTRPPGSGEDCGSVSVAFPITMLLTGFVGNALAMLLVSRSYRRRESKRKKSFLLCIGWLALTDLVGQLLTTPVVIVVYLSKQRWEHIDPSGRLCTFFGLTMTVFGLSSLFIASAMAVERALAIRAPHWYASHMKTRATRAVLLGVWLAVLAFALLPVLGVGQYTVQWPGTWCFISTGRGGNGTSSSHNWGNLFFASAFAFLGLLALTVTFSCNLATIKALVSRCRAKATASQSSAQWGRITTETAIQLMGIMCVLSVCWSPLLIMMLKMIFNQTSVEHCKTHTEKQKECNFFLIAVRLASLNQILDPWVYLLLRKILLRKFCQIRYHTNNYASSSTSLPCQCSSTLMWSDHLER
The assay is described as follows: FLIPR Ca2+ signaling antagonist assay, EP3 receptor stable cell line. Particulars: HEK-293 EBNA stable cell line; standard agonist PGE2; NA = inactive (no antagonism or Kb 10,000 nM); PAg, Ag not defined. As to the method: The above compounds were tested for PG antagonist activity as follows using human recombinant prostanoid receptor (DP1, EP1-4, FP, IP and TP) stable cell lines:
In order to measure the response of Gs and Gi coupled prostanoid receptors as a Ca^2+ signal, chimeric G protein cDNAs were used. Stable cell lines over-expressing human prostanoid DP1, EP1-4, FP, IP, and TP receptors were established as follows:
Briefly, human prostanoid DP1, EP2, and EP4 receptor cDNAs were co-transfected with chimeric Gqs cDNA containing a haemagglutanin (HA) epitope; human prostanoid EP3 receptors were co-transfected with chimeric Gqi-HA; human EP1, FP, IP, and TP receptor cDNAs were expressed with no exogenous G-proteins. Gqs and Gqi chimeric cDNAs (Molecular Devices, Sunnyvale, Calif., U.S.A.), as well as cDNAs of prostanoid receptors, were cloned into a pCEP4 vector with a hygromycin B selection marker. Transfection into HEK-293 EBNA (Epstein-Barr virus nuclear antigen) cells was achieved by the FuGENE 6 transfection Reagent (Roche Applied Science, Indianapolis, Ind., USA). Stable transfectants were selected according to hygromycin resistance. Because Gqs and Gqi contained an HA epitope, G-protein expression was detected by Western blotting analysis using anti-mouse HA monoclonal antibody and horseradish peroxidase (HRP)-conjugated secondary antibody, while functional expression of prostanoid receptors was detected by FLIPR screening (Matias et al., 2004). These stable cell lines were validated using previously published antagonists at 10 μM against serial dilutions of standard agonists by FLIPR functional assays for Ca^2+ Signaling (as described below).
Ca^2+ signaling studies were performed using a FLIPR TETRA system (Molecular Devices, Sunnyvale, Calif., USA) in the 384-format. This is a high-throughput instrument for cell-based assays to monitor Ca^2+ signaling associated with GPCRs and ion channels. Cells were seeded at a density of 5×10^4 cells/well in BioCoat poly-D-lysine coated, black wall, clear bottom 384-well plates (BD Biosciences, Franklin lakes, NJ, USA) and allowed to attach overnight in an incubator at 37° C. The cells were then washed twice with HBSS-HEPES buffer (Hanks' balanced salt solution without bicarbonate and phenol red, 20 mM HEPES, pH 7.4) using an ELx405 Select CW Microplate Washer (BioTek, Winooski, Vt., USA). After 60 min of dye-loading in the dark using the Ca^2+-sensitive dye Fluo-4AM (Invitrogen, Carlsbad, Calif., USA), at a final concentration of 2×10^−6M, the plates were washed 4 times with HBSS-HEPES buffer to remove excess dye and leaving 50 μl of buffer in each well. The plates were then placed in the FLIPR TETRA instrument and allowed to equilibrate at 37° C. AGN-211377 was added in a 25 μl volume to each well to give final concentrations of 0.1 μM, 0.3 μM, 1 μM, 3 μM, 10 μM, and 30 μM; or 0.067 μM, 0.1 μM, 0.2 μM, 0.3 μM, 0.67 μM, and 1 μM for cells over-expressing TP receptors. After 4.5 minutes, a 7-point serial dilution of the standard agonist for the corresponding receptor, in a 25 μl volume was injected at the final concentrations from 10^−11M to 10^−5M in 10-fold serial dilution increments for cells expressing human recombinant DP1, EP1, EP2, EP3, EP4, FP, and IP receptors. The dose range for the standard agonist for human recombinant TP receptors was from 10^−12 M to 10^−6 M. HBSS-HEPES buffer was used as the negative control for the standard agonists. Cells were excited with LED (light emitting diode) excitation at 470-495 nm and emission was measured through an emission filter at 515-575 nm. Assay plates were read for 3.5 minutes using the FLIPR^TETRA. The peak increase in fluorescence intensity was recorded for each well. On each plate, negative controls, dose response of positive controls, and co-treatments of antagonist-agonist for each dose were in triplicates.
Standard agonists were as follows: DP=BW 245C, EP1-EP4=PGE2, FP=17-phenyl-PGF2α, IP=Cicaprost, and TP=U-46619. […]

Assay [3] deals with T3, human prostanoid DP1 receptor (Homo sapiens, UniProt Q13258).
T3 construct: expressed in transfected cells
T3 sequence (Q13258 1-359): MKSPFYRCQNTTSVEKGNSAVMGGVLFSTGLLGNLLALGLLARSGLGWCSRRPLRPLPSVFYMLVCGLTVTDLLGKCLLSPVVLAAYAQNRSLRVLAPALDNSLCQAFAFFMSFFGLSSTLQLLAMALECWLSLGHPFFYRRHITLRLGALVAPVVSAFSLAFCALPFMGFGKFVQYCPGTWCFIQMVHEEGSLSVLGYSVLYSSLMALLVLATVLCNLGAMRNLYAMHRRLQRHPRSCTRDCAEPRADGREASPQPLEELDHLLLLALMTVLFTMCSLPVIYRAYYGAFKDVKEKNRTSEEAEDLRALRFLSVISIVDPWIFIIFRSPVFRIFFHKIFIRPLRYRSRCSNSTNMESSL
The assay is described as follows: FLIPR Ca2+ signaling antagonist assay, DP1 receptor stable cell line. Particulars: HEK-293 EBNA stable cell line; standard agonist BW 245C; NA = inactive (no antagonism or Kb 10,000 nM); PAg, Ag not defined. Summed up:
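Functional antagonism measured by Ca2+ flux at 37 °C. Agonist ranges were 10^−11 to 10^−5 M, or 10^−12 to 10^−6 M for TP with U-46619; PGE2 for EP1/EP3, BW 245C for DP1. Compound spanned 0.1–30 μM except TP, 0.067–1 μM.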

Assay [4] addresses T4, human prostanoid IP receptor (Homo sapiens, UniProt P43119).
T4 construct: expressed in transfected cells
The assay is described as follows: FLIPR Ca2+ signaling antagonist assay, IP receptor stable cell line. Particulars: HEK-293 EBNA stable cell line; standard agonist Cicaprost; NA = inactive (no antagonism or Kb 10,000 nM); PAg, Ag not defined. In a few lines:
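HEK-293 EBNA cells stably expressing receptor (EP3 co-expressed with chimeric Gqi; EP1, IP, TP without exogenous G protein), Fluo-4 loaded, read on FLIPR at 37° C. Antagonist added 4.5 min before standard agonist (EP1/EP3 PGE2, IP cicaprost 10^−11–10^−5 M; TP U-46619 10^−12–10^−6 M); antagonist 0.1–30 μM, TP 0.067–1 μM; peak fluorescence relative to 10^−6 M agonist.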

Each structure is given as a SMILES string.

The Kb is the affinity of an antagonist, worked out from how it opposes an agonist. Low values mean a more potent antagonist, high ones a less potent antagonist.

T1 sequence (P43088 whole entry): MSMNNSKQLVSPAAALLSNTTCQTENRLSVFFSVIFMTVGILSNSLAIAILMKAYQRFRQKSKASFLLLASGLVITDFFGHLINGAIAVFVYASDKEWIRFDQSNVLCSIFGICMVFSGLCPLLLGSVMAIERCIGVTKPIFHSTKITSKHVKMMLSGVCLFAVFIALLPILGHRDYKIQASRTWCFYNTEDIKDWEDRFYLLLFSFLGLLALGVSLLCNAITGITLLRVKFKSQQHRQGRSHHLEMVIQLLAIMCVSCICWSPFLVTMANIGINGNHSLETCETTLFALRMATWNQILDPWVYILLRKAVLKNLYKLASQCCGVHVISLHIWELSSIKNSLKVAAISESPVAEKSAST
T4 sequence (P43119 whole entry): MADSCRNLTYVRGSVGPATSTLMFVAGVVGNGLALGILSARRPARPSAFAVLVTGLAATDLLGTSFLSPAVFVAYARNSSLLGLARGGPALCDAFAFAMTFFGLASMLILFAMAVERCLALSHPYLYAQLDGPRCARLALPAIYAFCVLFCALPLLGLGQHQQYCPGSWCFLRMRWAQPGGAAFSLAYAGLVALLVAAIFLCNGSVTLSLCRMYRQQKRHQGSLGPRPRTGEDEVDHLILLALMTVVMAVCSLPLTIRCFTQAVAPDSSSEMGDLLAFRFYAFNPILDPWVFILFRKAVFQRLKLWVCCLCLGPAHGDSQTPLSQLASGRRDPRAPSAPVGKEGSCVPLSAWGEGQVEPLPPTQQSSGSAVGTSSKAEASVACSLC

Turning to `Cc1cc(CCC(=O)O)nn1Cc1cc(Cl)ccc1OCCCC(C)C` [Example 40, 3-[1-(5-Chloro-2-(4-methylpentyloxy)benzyl)-5-methyl-1H-pyrazol-3-yl]-propionic acid], the Kb in assay [1] came out at 0.36 µM; in assay [2], 5.7 µM; in assay [4] it was 0.72 µM. Besides, the “DP1 (FLIPR) Kb” value in assay [3] is given as “PAg”.

For the molecule `Cc1cc(CCC(=O)NS(=O)(=O)C(F)(F)F)nn1Cc1cc(Cl)ccc1OCC1CCCC1` [Example 43, N-(3-[1-(5-Chloro-2-cyclopentylmethoxybenzyl)-5-methyl-1H-pyrazol-3-yl]-propionyl)C,C,C-trifluoromethanesulfon amide], the figures for the Kb in assay [1], in assay [2] and in assay [4] were 0.4 µM, 1.7 µM and 0.8 µM, respectively. In addition, the “DP1 (FLIPR) Kb” value in assay [3] is listed as “PAg”.

Consider `Cc1cc(CCC(=O)O)nn1Cc1cc(Cl)ccc1C#CC1CCCC1` [Example 73, 3-{1-[5-Chloro-2-cyclopentylethynyl-benzyl]-5-methyl-1H-pyrazol-3-yl}-propionic acid], for which the Kb in assay [1] was determined as 0.05 µM; in assay [2], 2.7 µM; in assay [3] it was 0.7 µM; in assay [4] it was 1.6 µM.

Consider `Cc1cc(CCC(=O)O)nn1Cc1cc(C(F)(F)F)ccc1OCc1ccc(Cl)cc1` [Example 52, 3-[1-[2-(4-Chloro-benzyloxy)-5-trifluoromethyl-benzyl]-5-methyl-1H-pyrazol-3-yl]-propionic acid], for which the Kb in assay [1] came out at 0.03 µM; in assay [2], 2.8 µM; in assay [3], 0.1 µM. In addition, the “IP (FLIPR) Kb” value in assay [4] is recorded as “PAg”.

Turning to `Cc1cc(CCC(=O)O)nn1Cc1cc(Br)ccc1OCC1(C(F)(F)F)CCC1` [Example 13, 3-[1-(5-Bromo-2-(1-trifluoromethylcyclobutylmethoxy)-benzyl)-5-methyl-1H-pyrazol-3-yl]-propionic acid], the antagonist equilibrium constant (Kb) in assay [1] stood at 0.1 µM; in assay [2], 8.3 µM; in assay [3], 0.9 µM; in assay [4] it was 8.8 µM.

Regarding `Cc1cc(CCC(=O)O)nn1Cc1cc(Cl)ccc1OCc1ccc(Cl)cc1Cl` [Example 26, 3-[1-(5-Chloro-2-(2,4-dichlorobenzyloxy)benzyl)-5-methyl-1H-pyrazol-3-yl]-propionic acid], the Kb in assay [1] was determined as 0.14 µM; in assay [2], 7.1 µM; in assay [3], 0.5 µM; in assay [4] it was 1 µM.

Consider `Cc1cc(CCC(=O)O)nn1Cc1cc(OC(F)(F)F)ccc1OCc1ccc(Cl)cc1` [Example 51, 3-[1-[2-(4-Chloro-benzyloxy)-5-trifluoromethoxy-benzyl]-5-methyl-1H-pyrazol-3-yl]-propionic acid], for which the Kb in assay [1] worked out at 0.02 µM; in assay [2] it was 6.6 µM; in assay [3] it was 0.6 µM. Besides, in assay [4], the “IP (FLIPR) Kb” value is “PAg”.

`CCC(CC)COc1ccc(Br)cc1Cn1nc(CCC(=O)O)cc1C(C)C` [Example 55, 3-{1-[5-Bromo-2-(2-ethyl-butoxy)-benzyl]-5-isopropyl-1H-pyrazol-3-yl}-propionic acid]: the antagonist equilibrium constant (Kb) in assay [1] is 0.11 µM; in assay [2], 3.7 µM; in assay [3], 0.54 µM; in assay [4] it was 1.1 µM.

`Cc1cc(CC(C)(C)C(=O)O)nn1Cc1cc(Br)ccc1OCC1CCCC1` [Example 71, 3-{1-[5-Bromo-2-(2-cyclopentylmethoxy)-benzyl]-5-methyl-1H-pyrazol-3-yl}-2,2-dimethyl-propionic acid]: the Kb is 0.2 µM in assay [1], 3.2 µM in assay [2], 0.9 µM in assay [3] and 3.1 µM in assay [4].

Regarding `CCC(CC)COc1ccc(Br)cc1Cn1nc(CCC(=O)O)cc1C(F)(F)F` [Example 58, 3-{1-[5-Bromo-2-(2-ethyl-butoxy)-benzyl]-5-trifluororomethyl-1H-pyrazol-3-yl}-propionic acid], the “FP (FLIPR) Kb” value in assay [1] is reported as “PAg”. In addition, the “EP3 (FLIPR) Kb” value in assay [2] is “PAg”. The molecule also displayed a Kb in assay [3] of 0.06 µM. In addition, the “IP (FLIPR) Kb” value in assay [4] is “PAg”.

As for `CCCC(C)COc1ccc(Br)cc1Cn1nc(CCC(=O)O)cc1C` (centres unmarked) [Example 8, 3-[1-(5-Bromo-2-(2-methyl-pentyloxy)-benzyl)-5-methyl-1H-pyrazol-3-yl]-propionic acid], the Kb in assay [1] was 0.09 µM; in assay [2], 6.4 µM; in assay [3], 0.11 µM; in assay [4] it was 1.7 µM.
